Laboratory results: the supplement of paper PMC10307832

How the values were obtained:
Test in all cases: relative viability (nuclei count vs DMSO), 5 days (fraction); higher = more cells survive
NCI-H1915 = test system: NCI-H1915
Summary of the method: (§1)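 Lung cancer cell lines in 1536-well plates were dosed by pin tool the day after seeding, either with one drug alone or with a fixed anchor-drug dose plus five library-drug doses (not always all listed) in √10 steps. After 5 days, cells were fixed and their nuclei stained in one step (final 0.05% Triton X-100, 1% formaldehyde, 1 ug/ml Hoechst), then counted on 4× images. Relative viability is the nuclei count in treated wells divided by that in vehicle wells. Values are medians of duplicate plates.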

LCLC-103H = test system: LCLC-103H
Summary of the method: as §1

LXF-289 = test system: LXF-289
Summary of the method: as §1

A-427 = test system: A-427
Summary of the method: as §1

NCI-H1651 = test system: NCI-H1651
Summary of the method: as §1

NCI-H596 = test system: NCI-H596
Summary of the method: as §1

EKVX = test system: EKVX
Summary of the method: as §1

NCI-H2347 = test system: NCI-H2347
Summary of the method: as §1

COR-L23 = test system: COR-L23
Summary of the method: as §1

HCC-44 = test system: HCC-44
Summary of the method: as §1

NCI-H358 = test system: NCI-H358
Summary of the method: as §1

201T = test system: 201T
Summary of the method: as §1

EPLC-272H = test system: EPLC-272H
Summary of the method: as §1

NCI-H1793 = test system: NCI-H1793
Summary of the method: as §1

NCI-H460 = test system: NCI-H460
Summary of the method: as §1

NCI-H1650 = test system: NCI-H1650
Summary of the method: as §1

LK-2 = test system: LK-2
Summary of the method: as §1

NCI-H2087 = test system: NCI-H2087
Summary of the method: as §1

EMC-BAC-2 = test system: EMC-BAC-2
Summary of the method: as §1

NCI-H2126 = test system: NCI-H2126
Summary of the method: as §1

SW 1573 = test system: SW 1573
Summary of the method: as §1

HCC-827 = test system: HCC-827
Summary of the method: as §1

BEN = test system: BEN
Summary of the method: as §1

For O=C(O)CCCCC(CCSCc1ccccc1)SCc1ccccc1 (stereo not given) [CPI-613] + CCNC(=O)c1noc(-c2cc(C(C)C)c(O)cc2O)c1-c1ccc(CN2CCOCC2)cc1 [Luminespib] (partner 0.01 µM), the relative viability (NCI-H1915; first compound 5 µM) was 0.746, the relative viability (NCI-H1915; first compound 15.81 µM) was 0.841 and the relative viability (NCI-H1915; first compound 50 µM) was 0.675. The relative viability (NCI-H1915; first compound 158.11 µM) was 0.161, the relative viability (NCI-H1915; first compound 500 µM) was 0.0405 and the relative viability (LCLC-103H; first compound 5 µM) was 0.924. The relative viability (LCLC-103H; first compound 15.81 µM) was 0.825, the relative viability (LCLC-103H; first compound 50 µM) was 0.846 and the relative viability (LCLC-103H; first compound 158.11 µM) was 0.811. It also gave a relative viability (LCLC-103H; first compound 500 µM) of 0.269, a relative viability (LXF-289; first compound 5 µM) of 0.611 and a relative viability (LXF-289; first compound 15.81 µM) of 0.535. The relative viability (LXF-289; first compound 50 µM) was 0.657, the relative viability (LXF-289; first compound 158.11 µM) was 0.206 and the relative viability (LXF-289; first compound 500 µM) was 0.0484. The relative viability (A-427; first compound 5 µM) was 0.85, the relative viability (A-427; first compound 15.81 µM) was 0.938 and the relative viability (A-427; first compound 50 µM) was 0.761. The relative viability (A-427; first compound 158.11 µM) was 0.512, the relative viability (A-427; first compound 500 µM) was 0.126 and the relative viability (NCI-H1651; first compound 5 µM) was 0.867. It also gave a relative viability (NCI-H1651; first compound 15.81 µM) of 0.932, a relative viability (NCI-H1651; first compound 50 µM) of 0.841 and a relative viability (NCI-H1651; first compound 158.11 µM) of 0.185. The relative viability (NCI-H1651; first compound 500 µM) was 0.118, the relative viability (NCI-H596; first compound 5 µM) was 0.954 and the relative viability (NCI-H596; first compound 15.81 µM) was 0.955. For the same compound, the relative viability (NCI-H596; first compound 50 µM) was 1.12, the relative viability (NCI-H596; first compound 158.11 µM) was 0.168 and the relative viability (NCI-H596; first compound 500 µM) was 0.0176. It also gave a relative viability (EKVX; first compound 5 µM) of 0.834, a relative viability (EKVX; first compound 15.81 µM) of 0.881 and a relative viability (EKVX; first compound 50 µM) of 0.864. For the same compound, the relative viability (EKVX; first compound 158.11 µM) was 0.814, the relative viability (EKVX; first compound 500 µM) was 0.803 and the relative viability (NCI-H2347; first compound 5 µM) was 0.279. It also gave a relative viability (NCI-H2347; first compound 15.81 µM) of 0.344, a relative viability (NCI-H2347; first compound 50 µM) of 0.746 and a relative viability (NCI-H2347; first compound 158.11 µM) of 0.548. It also gave a relative viability (NCI-H2347; first compound 500 µM) of 0.833, a relative viability (COR-L23; first compound 5 µM) of 0.58 and a relative viability (COR-L23; first compound 15.81 µM) of 0.61. For the same compound, the relative viability (COR-L23; first compound 50 µM) was 0.664, the relative viability (COR-L23; first compound 158.11 µM) was 0.108 and the relative viability (COR-L23; first compound 500 µM) was 0.0308. For the same compound, the relative viability (HCC-44; first compound 5 µM) was 0.964, the relative viability (HCC-44; first compound 15.81 µM) was 0.939 and the relative viability (HCC-44; first compound 50 µM) was 1.04. It also gave a relative viability (HCC-44; first compound 158.11 µM) of 0.495, a relative viability (HCC-44; first compound 500 µM) of 0.121 and a relative viability (NCI-H358; first compound 5 µM) of 0.287. It also gave a relative viability (NCI-H358; first compound 15.81 µM) of 0.249, a relative viability (NCI-H358; first compound 50 µM) of 0.356 and a relative viability (NCI-H358; first compound 158.11 µM) of 0.414. For the same compound, the relative viability (NCI-H358; first compound 500 µM) was 0.408, the relative viability (201T; first compound 5 µM) was 1.05 and the relative viability (201T; first compound 15.81 µM) was 0.973. The relative viability (201T; first compound 50 µM) was 1.01, the relative viability (201T; first compound 158.11 µM) was 0.258 and the relative viability (201T; first compound 500 µM) was 0.0468. The relative viability (EPLC-272H; first compound 5 µM) was 0.338, the relative viability (EPLC-272H; first compound 15.81 µM) was 0.32 and the relative viability (EPLC-272H; first compound 50 µM) was 0.575. For the same compound, the relative viability (EPLC-272H; first compound 158.11 µM) was 0.0624, the relative viability (EPLC-272H; first compound 500 µM) was 0.0121 and the relative viability (NCI-H1793; first compound 5 µM) was 0.252. The relative viability (NCI-H1793; first compound 15.81 µM) was 0.372, the relative viability (NCI-H1793; first compound 50 µM) was 0.175 and the relative viability (NCI-H1793; first compound 158.11 µM) was 0.131. The relative viability (NCI-H1793; first compound 500 µM) was 0.0028, the relative viability (NCI-H460; first compound 5 µM) was 0.0325 and the relative viability (NCI-H460; first compound 15.81 µM) was 0.0279. The relative viability (NCI-H460; first compound 50 µM) was 0.0372, the relative viability (NCI-H460; first compound 158.11 µM) was 0.0145 and the relative viability (NCI-H460; first compound 500 µM) was 0.0162. For the same compound, the relative viability (NCI-H1650; first compound 5 µM) was 0.213, the relative viability (NCI-H1650; first compound 15.81 µM) was 0.224 and the relative viability (NCI-H1650; first compound 50 µM) was 0.194. The relative viability (NCI-H1650; first compound 158.11 µM) was 0.168, the relative viability (NCI-H1650; first compound 500 µM) was 0.0166 and the relative viability (LK-2; first compound 5 µM) was 0.19. For the same compound, the relative viability (LK-2; first compound 15.81 µM) was 0.198, the relative viability (LK-2; first compound 50 µM) was 0.189 and the relative viability (LK-2; first compound 158.11 µM) was 0.153. It also gave a relative viability (LK-2; first compound 500 µM) of 0.172, a relative viability (NCI-H2087; first compound 5 µM) of 0.182 and a relative viability (NCI-H2087; first compound 15.81 µM) of 0.165. For the same compound, the relative viability (NCI-H2087; first compound 50 µM) was 0.155, the relative viability (NCI-H2087; first compound 158.11 µM) was 0.0422 and the relative viability (NCI-H2087; first compound 500 µM) was 0.026. For the same compound, the relative viability (EMC-BAC-2; first compound 5 µM) was 1.15, the relative viability (EMC-BAC-2; first compound 15.81 µM) was 1.08 and the relative viability (EMC-BAC-2; first compound 50 µM) was 1.16. For the same compound, the relative viability (EMC-BAC-2; first compound 158.11 µM) was 0.396, the relative viability (EMC-BAC-2; first compound 500 µM) was 0.0424 and the relative viability (NCI-H2126; first compound 5 µM) was 0.906. For the same compound, the relative viability (NCI-H2126; first compound 15.81 µM) was 0.83, the relative viability (NCI-H2126; first compound 50 µM) was 0.85 and the relative viability (NCI-H2126; first compound 158.11 µM) was 0.223. It also gave a relative viability (NCI-H2126; first compound 500 µM) of 0.053, a relative viability (SW 1573; first compound 5 µM) of 0.254 and a relative viability (SW 1573; first compound 15.81 µM) of 0.295. For the same compound, the relative viability (SW 1573; first compound 50 µM) was 0.138, the relative viability (SW 1573; first compound 158.11 µM) was 0.0967 and the relative viability (SW 1573; first compound 500 µM) was 0.0725. For the same compound, the relative viability (HCC-827; first compound 5 µM) was 0.416, the relative viability (HCC-827; first compound 15.81 µM) was 0.615 and the relative viability (HCC-827; first compound 50 µM) was 0.774. The relative viability (HCC-827; first compound 158.11 µM) was 0.633, the relative viability (HCC-827; first compound 500 µM) was 0.329 and the relative viability (BEN; first compound 5 µM) was 0.619. It also gave a relative viability (BEN; first compound 15.81 µM) of 0.362, a relative viability (BEN; first compound 50 µM) of 0.484 and a relative viability (BEN; first compound 158.11 µM) of 0.292. For the same compound, the relative viability (BEN; first compound 500 µM) was 0.149.
